System: HUVEC/MSC spheroids viability
Assay: Human HUVEC/MSC cell line growth inhibition [KRAS2];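 as to viability, T/C: percent of DMSO vehicle control luminescence so 100% = untreated viability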
Conditions: for IC50: curve of first compound; for viability, T/C: stronger effect = lower value
In short: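 Spheroids of pooled-donor HUVEC and hMSC (passage ≤5) without tumour cells were treated with KRAS-pathway inhibitors alone and combined with targeted agents. Top concentration was at or near clinical Cmax, or 10 microM when Cmax was unknown, descending in half-log steps.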

Work on `Cn1nccc1Nc1nccc(-c2cc3c(s2)C(C)(C)N(CCN2CCOCC2)C3=O)n1` + C=CC(=O)N1CCN(c2nc(=O)n(-c3c(C)ccnc3C(C)C)c3nc(-c4c(O)cccc4F)c(F)cc23)C(C)C1 yielded an IC50 (second compound 0.0316 µM) of 2.98 µM, an IC50 (second compound 0.1 µM) of 2.65 µM and an IC50 (second compound 0.316 µM) of 2.7 µM. For the same compound, the IC50 (second compound 1 µM) was 3.09 µM, the IC50 (second compound 3.16 µM) was 2.66 µM and the IC50 (second compound 10 µM) was 2.56 µM. It also gave a viability, T/C (second compound 0.0316 µM, first compound 0.0316 µM) of 86.7%, a viability, T/C (second compound 0.0316 µM, first compound 0.1 µM) of 102% and a viability, T/C (second compound 0.0316 µM, first compound 0.316 µM) of 112%. It also gave a viability, T/C (second compound 0.0316 µM, first compound 1 µM) of 93.3%, a viability, T/C (second compound 0.0316 µM, first compound 3.16 µM) of 47.7% and a viability, T/C (second compound 0.0316 µM, first compound 10 µM) of 5.76%. The viability, T/C (second compound 0.1 µM, first compound 0.0316 µM) was 105%, the viability, T/C (second compound 0.1 µM, first compound 0.1 µM) was 108% and the viability, T/C (second compound 0.1 µM, first compound 0.316 µM) was 105%. It also gave a viability, T/C (second compound 0.1 µM, first compound 1 µM) of 93.4%, a viability, T/C (second compound 0.1 µM, first compound 3.16 µM) of 42.1% and a viability, T/C (second compound 0.1 µM, first compound 10 µM) of 9.02%. The viability, T/C (second compound 0.316 µM, first compound 0.0316 µM) was 99.2%, the viability, T/C (second compound 0.316 µM, first compound 0.1 µM) was 114% and the viability, T/C (second compound 0.316 µM, first compound 0.316 µM) was 98.6%. For the same compound, the viability, T/C (second compound 0.316 µM, first compound 1 µM) was 99.6%, the viability, T/C (second compound 0.316 µM, first compound 3.16 µM) was 42.2% and the viability, T/C (second compound 0.316 µM, first compound 10 µM) was 5.77%. It also gave a viability, T/C (second compound 1 µM, first compound 0.0316 µM) of 99.8%, a viability, T/C (second compound 1 µM, first compound 0.1 µM) of 118% and a viability, T/C (second compound 1 µM, first compound 0.316 µM) of 129%. It also gave a viability, T/C (second compound 1 µM, first compound 1 µM) of 90.2%, a viability, T/C (second compound 1 µM, first compound 3.16 µM) of 51.1% and a viability, T/C (second compound 1 µM, first compound 10 µM) of 4.48%. It also gave a viability, T/C (second compound 3.16 µM, first compound 0.0316 µM) of 115%, a viability, T/C (second compound 3.16 µM, first compound 0.1 µM) of 129% and a viability, T/C (second compound 3.16 µM, first compound 0.316 µM) of 112%. The viability, T/C (second compound 3.16 µM, first compound 1 µM) was 84%, the viability, T/C (second compound 3.16 µM, first compound 3.16 µM) was 45.3% and the viability, T/C (second compound 3.16 µM, first compound 10 µM) was 4.12%. For the same compound, the viability, T/C (second compound 10 µM, first compound 0.0316 µM) was 150%, the viability, T/C (second compound 10 µM, first compound 0.1 µM) was 128% and the viability, T/C (second compound 10 µM, first compound 0.316 µM) was 135%. The viability, T/C (second compound 10 µM, first compound 1 µM) was 106%, the viability, T/C (second compound 10 µM, first compound 3.16 µM) was 37% and the viability, T/C (second compound 10 µM, first compound 10 µM) was 3.03%.
`CC(=O)OC12COC1CC(O)C1(C)C(=O)C(O)C3=C(C)C(OC(=O)C(O)C(NC(=O)OC(C)(C)C)c4ccccc4)CC(O)(C(OC(=O)c4ccccc4)C21)C3(C)C` (centres undefined) + COc1cc2nc(C)nc(NC(C)c3cc(N)cc(C(F)(F)F)c3)c2cc1OC1CCOC1 showed an IC50 (second compound 0.0316 µM) of under 0.00949 µM, an IC50 (second compound 0.1 µM) of over 3 µM and an IC50 (second compound 0.316 µM) of under 0.00949 µM. For the same compound, the IC50 (second compound 1 µM) was under 0.00949 µM, the IC50 (second compound 3.16 µM) was over 3 µM and the IC50 (second compound 10 µM) was 2.77 µM. The viability, T/C (second compound 0.0316 µM, first compound 0.00949 µM) was 47.1%, the viability, T/C (second compound 0.0316 µM, first compound 0.03 µM) was 55.3% and the viability, T/C (second compound 0.0316 µM, first compound 0.0949 µM) was 53%. For the same compound, the viability, T/C (second compound 0.0316 µM, first compound 0.3 µM) was 36.7%, the viability, T/C (second compound 0.0316 µM, first compound 0.949 µM) was 51.9% and the viability, T/C (second compound 0.0316 µM, first compound 3 µM) was 60.4%. It also gave a viability, T/C (second compound 0.1 µM, first compound 0.00949 µM) of 50.7%, a viability, T/C (second compound 0.1 µM, first compound 0.03 µM) of 57% and a viability, T/C (second compound 0.1 µM, first compound 0.0949 µM) of 54%. For the same compound, the viability, T/C (second compound 0.1 µM, first compound 0.3 µM) was 44%, the viability, T/C (second compound 0.1 µM, first compound 0.949 µM) was 54.7% and the viability, T/C (second compound 0.1 µM, first compound 3 µM) was 61.5%. It also gave a viability, T/C (second compound 0.316 µM, first compound 0.00949 µM) of 45.5%, a viability, T/C (second compound 0.316 µM, first compound 0.03 µM) of 44.4% and a viability, T/C (second compound 0.316 µM, first compound 0.0949 µM) of 44.8%. For the same compound, the viability, T/C (second compound 0.316 µM, first compound 0.3 µM) was 49.3%, the viability, T/C (second compound 0.316 µM, first compound 0.949 µM) was 47.5% and the viability, T/C (second compound 0.316 µM, first compound 3 µM) was 57.1%. The viability, T/C (second compound 1 µM, first compound 0.00949 µM) was 45.5%, the viability, T/C (second compound 1 µM, first compound 0.03 µM) was 47.8% and the viability, T/C (second compound 1 µM, first compound 0.0949 µM) was 37.2%. For the same compound, the viability, T/C (second compound 1 µM, first compound 0.3 µM) was 57.1%, the viability, T/C (second compound 1 µM, first compound 0.949 µM) was 63.6% and the viability, T/C (second compound 1 µM, first compound 3 µM) was 47.9%. It also gave a viability, T/C (second compound 3.16 µM, first compound 0.00949 µM) of 51.5%, a viability, T/C (second compound 3.16 µM, first compound 0.03 µM) of 48.3% and a viability, T/C (second compound 3.16 µM, first compound 0.0949 µM) of 58.6%. For the same compound, the viability, T/C (second compound 3.16 µM, first compound 0.3 µM) was 48.1%, the viability, T/C (second compound 3.16 µM, first compound 0.949 µM) was 58.3% and the viability, T/C (second compound 3.16 µM, first compound 3 µM) was 50.6%. The viability, T/C (second compound 10 µM, first compound 0.00949 µM) was 52.4%, the viability, T/C (second compound 10 µM, first compound 0.03 µM) was 71.7% and the viability, T/C (second compound 10 µM, first compound 0.0949 µM) was 59.2%. It also gave a viability, T/C (second compound 10 µM, first compound 0.3 µM) of 58.1%, a viability, T/C (second compound 10 µM, first compound 0.949 µM) of 59.8% and a viability, T/C (second compound 10 µM, first compound 3 µM) of 49.3%.

From PubChem BioAssay AID2060912 (Molecular Pharmacology Branch, DTP, NCI, 2025)
